Here are results for ten molecules from the NIST ThermoML archive (doi:10.1021/je060149b).

A short description of the data set: xn = mol fraction of the nth substance listed. The settings on record: 101 kPa, Liquid, Taylor dispersion method, x1 = 0.

SMILES strings stand for the structures.

As to `CC[C@H](C)[C@H](N)C(=O)O` [2-amino-3-methylpentanoic acid] + O, the binary diffusion coefficient worked out at 6.41e-10 m2/s (293.2 K); 7.44e-10 m2/s (298.2 K); 8.36e-10 m2/s (303.2 K); 1.07e-09 m2/s (313.2 K); 1.33e-09 m2/s (323.2 K); 1.62e-09 m2/s (333.2 K).
Consider `NCC(=O)O` [2-aminoacetic acid] + O, for which the binary diffusion coefficient came out at 9.36e-10 m2/s (293.2 K); 1.06e-09 m2/s (298.2 K); 1.22e-09 m2/s (303.2 K); 1.5e-09 m2/s (313.2 K); 1.86e-09 m2/s (323.2 K); 2.22e-09 m2/s (333.2 K).
As for `CCCCC(N)C(=O)O` (stereo not given) [2-aminohexanoic acid] + O, the binary diffusion coefficient (293.2 K) turned out to be 6.41e-10 m2/s; the binary diffusion coefficient (298.2 K) is 7.36e-10 m2/s; the binary diffusion coefficient (303.2 K) was 8.27e-10 m2/s; the binary diffusion coefficient (313.2 K) is 1.07e-09 m2/s; the binary diffusion coefficient (323.2 K) came to 1.32e-09 m2/s; the binary diffusion coefficient (333.2 K) was found to be 1.6e-09 m2/s.
For `CCC(N)C(=O)O` (stereo not drawn) [(.+-.)-α-aminobutyric acid] + O, the binary diffusion coefficient (293.2 K) was 7.29e-10 m2/s; the binary diffusion coefficient (298.2 K) amounted to 8.39e-10 m2/s; the binary diffusion coefficient (303.2 K) amounted to 9.48e-10 m2/s; the binary diffusion coefficient (313.2 K) is 1.2e-09 m2/s; the binary diffusion coefficient (323.2 K) worked out at 1.49e-09 m2/s; the binary diffusion coefficient (333.2 K) worked out at 1.8e-09 m2/s.
Regarding `CCC[C@H](N)C(=O)O` [(S)-2-aminopentanoic acid] + O, the binary diffusion coefficient (293.2 K) came to 6.77e-10 m2/s; the binary diffusion coefficient (298.2 K) was found to be 7.75e-10 m2/s; the binary diffusion coefficient (303.2 K) came out at 8.79e-10 m2/s; the binary diffusion coefficient (313.2 K) was determined as 1.12e-09 m2/s; the binary diffusion coefficient (323.2 K) turned out to be 1.39e-09 m2/s; the binary diffusion coefficient (333.2 K) turned out to be 1.69e-09 m2/s.
Take `C[C@H](N)C(=O)O` [(S)-2-aminopropanoic acid] + O: the binary diffusion coefficient turned out to be 8.06e-10 m2/s (293.2 K); 9.3e-10 m2/s (298.2 K); 1.04e-09 m2/s (303.2 K); 1.31e-09 m2/s (313.2 K); 1.63e-09 m2/s (323.2 K); 1.96e-09 m2/s (333.2 K).
As for `CC(C)(C)C(N)C(=O)O` (stereo not drawn) [DL-tert-leucine] + O, the binary diffusion coefficient by setting is: (293.2 K) 6.31e-10 m2/s; (298.2 K) 7.29e-10 m2/s; (303.2 K) 8.46e-10 m2/s; (313.2 K) 1.06e-09 m2/s; (323.2 K) 1.33e-09 m2/s; (333.2 K) 1.61e-09 m2/s.
On to `CC(C)C[C@H](N)C(=O)O` [L-leucine] + O, for which the binary diffusion coefficient (293.2 K) was determined as 6.41e-10 m2/s; the binary diffusion coefficient (298.2 K) worked out at 7.35e-10 m2/s; the binary diffusion coefficient (303.2 K) was found to be 8.24e-10 m2/s; the binary diffusion coefficient (313.2 K) turned out to be 1.07e-09 m2/s; the binary diffusion coefficient (323.2 K) is 1.33e-09 m2/s; the binary diffusion coefficient (333.2 K) was 1.6e-09 m2/s.
As to `CC(C)[C@H](N)C(=O)O` [L-valine] + O, the binary diffusion coefficient runs as follows: (293.2 K) 6.76e-10 m2/s; (298.2 K) 7.77e-10 m2/s; (303.2 K) 8.91e-10 m2/s; (313.2 K) 1.12e-09 m2/s; (323.2 K) 1.4e-09 m2/s; (333.2 K) 1.7e-09 m2/s.
Turning to `CC[C@@H](C)[C@H](N)C(=O)O` [allo-L-isoleucine] + O, the binary diffusion coefficient reads like this: (293.2 K) 6.42e-10 m2/s; (298.2 K) 7.38e-10 m2/s; (303.2 K) 8.44e-10 m2/s; (313.2 K) 1.07e-09 m2/s; (323.2 K) 1.33e-09 m2/s; (333.2 K) 1.61e-09 m2/s.
